Biological target: T1, 20S proteasome (chymotrypsin-like activity) (Homo sapiens, UniProt P28074)
T1 sequence (P28074 60-263): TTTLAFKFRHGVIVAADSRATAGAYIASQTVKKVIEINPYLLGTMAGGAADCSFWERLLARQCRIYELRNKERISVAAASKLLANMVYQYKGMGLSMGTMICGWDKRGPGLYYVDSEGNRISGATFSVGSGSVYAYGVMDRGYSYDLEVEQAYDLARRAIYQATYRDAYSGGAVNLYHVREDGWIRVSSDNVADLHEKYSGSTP
Assay: fluorogenic Suc-LLVY-AMC hydrolysis by purified […] proteasome
Assay type: biochemical

Row | Structure (SMILES) | IC50 [µM]
1 | O=C([O-])Cc1c[nH]c2ccccc12.O=C([O-])Cc1c[nH]c2ccccc12.O=C([O-])Cc1c[nH]c2ccccc12.O=C([O-])Cc1c[nH]c2ccccc12.[Cu+2].[Cu+2] [compound 3, Complex 3] | 3
2 | O=C([O-])CCc1c[nH]c2ccccc12.O=C([O-])CCc1c[nH]c2ccccc12.[Cu+2].c1cnc2c(c1)ccc1cccnc12 [compound 6, Complex 6] | 3.3
